The text below walks through data of ChEMBL document CHEMBL4196203, “BACE1 Inhibitory Meroterpenoids from Aspergillus terreus” (J Nat Prod, 2018).

The assay deals with Beta-secretase 1 (Homo sapiens, UniProt P56817). In words: Inhibition of human BACE1 using MOCA-SEV-NL-DAEFR-DNP-RR as substrate measured after 2 hrs by FRET assay.

The structures appear in SMILES notation.

Chain of Beta-secretase 1 (P56817 whole entry): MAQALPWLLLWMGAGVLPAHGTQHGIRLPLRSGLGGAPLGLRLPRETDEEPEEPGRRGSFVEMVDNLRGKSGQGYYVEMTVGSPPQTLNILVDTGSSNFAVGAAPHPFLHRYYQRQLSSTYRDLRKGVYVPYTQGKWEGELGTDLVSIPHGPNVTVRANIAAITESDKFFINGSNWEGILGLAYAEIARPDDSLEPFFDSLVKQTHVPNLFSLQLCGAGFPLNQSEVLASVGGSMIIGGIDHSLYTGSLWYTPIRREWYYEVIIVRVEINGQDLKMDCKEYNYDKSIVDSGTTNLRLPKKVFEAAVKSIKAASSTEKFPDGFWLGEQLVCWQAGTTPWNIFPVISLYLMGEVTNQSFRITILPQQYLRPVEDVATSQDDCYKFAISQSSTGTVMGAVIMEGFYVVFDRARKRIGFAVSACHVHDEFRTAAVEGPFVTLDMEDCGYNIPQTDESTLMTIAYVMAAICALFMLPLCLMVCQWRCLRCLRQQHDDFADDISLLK

In general, IC50 refers to the concentration that inhibits the measured activity by half. On to `C=C1C[C@H]2[C@]3(C)CCC(=O)C(C)(C)[C@H]3C(=O)[C@@H](O)[C@]2(C)[C@H]2C(=O)O[C@](C)(C(=O)OCC)C(=O)[C@]12C`, for which the IC50 was more than 50 µM.
In the case of `C=C1C[C@H]2[C@]3(C)CCC(=O)C(C)(C)[C@H]3C(=O)[C@@H](O)[C@]2(C)[C@H]2C(=O)O[C@](C)(C(=O)OC)C(=O)[C@]12C` it was more than 50 µM.
`C=C1C[C@H]2[C@]3(C)CCC(=O)C(C)(C)[C@H]3C(=O)C[C@]2(C)[C@@H](C(=O)OC)[C@]1(C)C(=O)[C@](C)(O)C(=O)OC`: the IC50 was more than 50 µM.
In the case of `C=C1C[C@H]2[C@]3(C)CCC(=O)C(C)(C)[C@H]3CC[C@]2(C)[C@]2(C(=O)OC)C(=O)[C@@](C)(O)C(=O)[C@]12C` it was more than 50 µM.
In the case of `C=C1C[C@H]2[C@]3(C)CCC(=O)C(C)(C)[C@@H]3C(=O)[C@@H](O)[C@]2(C)[C@@H](C(=O)OC)[C@]1(C)C(=O)[C@](C)(O)C(=O)OC` it was 31.7 µM.
For `C=C1C[C@@]2(O)[C@]3(C)CCC(=O)C(C)(C)C3=C(O)C(=O)[C@]2(C)[C@H]2C(=O)O[C@](C)(C(=O)OC)C(=O)[C@]12C` the value was more than 50 µM.
In the case of `C=C1C[C@H]2[C@]3(C)CCC(=O)C(C)(C)[C@H]3C(=O)C[C@]2(C)[C@]2(C(=O)OC)C(=O)[C@H](C)OC(=O)[C@]12C`, the IC50 was more than 50 µM.
In turn, `C=C1C[C@H]2[C@]3(C)CCC(=O)C(C)(C)[C@@H]3C(=O)[C@@H](O)[C@]2(C)[C@H]2C(=O)O[C@](C)(C(=O)OC)C(=O)[C@]12C` gave an IC50 of 3.32 µM.
In the case of `C=C1[C@@H]2O[C@@]23[C@]2(C)CCC(=O)C(C)(C)C2=C(O)C(=O)[C@]3(C)[C@H]2C(=O)O[C@](C)(C(=O)OC)C(=O)[C@]12C` it was more than 50 µM; in that of `C=C1C[C@H]2[C@]3(C)CCC(=O)C(C)(C)[C@H]3C(=O)[C@@H](O)[C@]2(C)[C@@H](C(=O)OC)[C@]1(C)C(=O)[C@](C)(O)C(=O)OC`, more than 50 µM; in that of `C=C1C[C@@H]2[C@](C)(C(=O)C(O)=C3C(C)(C)C(=O)CC[C@]32C)[C@H]2C(=O)O[C@](C)(C(=O)OC)C(=O)[C@]12C`, more than 50 µM.
`C=C1C[C@H]2[C@]3(C)CCC(=O)C(C)(C)[C@H]3C(=O)[C@@H](O)[C@]2(C)[C@@H]2C(=O)O[C@](C)(C(=O)OC)C(=O)[C@]12C` had an IC50 of more than 50 µM.
Take `C=C1C[C@H]2[C@]3(C)CCC(=O)C(C)(C)[C@@H]3C(=O)[C@@H](O)[C@]2(C)[C@H]2C(=O)O[C@@H](C)C(=O)[C@]12C`: the IC50 turned out to be 5.85 µM. This counts as single-digit micromolar.
Turning to `C=C1C[C@@H]2[C@](C)(C(=O)C(O)=C3C(C)(C)C(=O)CC[C@]32C)[C@@H](C(=O)OC)[C@]1(C)C(=O)[C@](C)(O)C(=O)OC`, the half-maximal inhibitory concentration (IC50) was more than 50 µM.
In the case of `C=C1C[C@H]2[C@]3(C)CCC(=O)C(C)(C)[C@H]3C(=O)[C@@H](O)[C@]2(C)[C@H]2C(=O)O[C@@H](C)C(=O)[C@]12C` it was more than 50 µM; in that of `C=C1C[C@H]2[C@]3(C)CC[C@@H](O)C(C)(C)[C@H]3C(=O)[C@@H](O)[C@]2(C)[C@@H](C(=O)OC)[C@]1(C)C(=O)[C@](C)(O)C(=O)OC`, more than 50 µM.
